Values joined by “and” are separate entries in the source; they are usually repeats but may differ in a detail not shown here. Equal values may be shown once. Read-outs that look alike come from different tables or passages of the source.
Test: Pharmacokinetic/toxicokinetic profile of RTX after intravesical instillation in dogs
Assay type: in vivo, dog
Description: Local tolerance and the pharmacokinetic (PK), and toxicokinetic (TK) profile of RTX in dogs was determined after a single instillation of RTX into the bladder of dogs (n=6). The RTX formulations were prepared using aseptic techniques in a biological safety cabinet (BSC) by mixing the appropriate amount of diluent with the appropriate amount of RTX. Dosing formulation concentrations used were 1 and 10 mcg/mL.
Three male and three female dogs ranging in weight from 5.95 to 8.60 kg were used in the study. The dogs were assigned into Group 1 (receiving a dose of 1 mcg/mL RTX) or Group 2 (receiving a dose of 10 mcg/mL RTX) as shown in the Table 3 below.
RTX was administered via intravesical instillation into the urinary bladder. The animals were given a single dose of 25 or 250 mcg/dose in a total volume of 25 mL on Day 1 over a period of 1 hour (±5 minutes). RTX and diluent were administered to the dogs under general anesthesia via a Foley catheter placed into the bladder for 1 hour (±5 minutes).
Blood samples were collected from all animals on Day 1 pre-dose and at 0.5, 1, 2, 4, 6, 12, 24, 36, 48, 60, and 72 hours post-dose. The toxicokinetic (TK) parameters were determined for RTX, and if appropriate, the metabolites, from mean concentration-time data.
Cmax is the observed maximum plasma concentration from the start of dosing. Tmax is the time to reach the Cmax. AUC(0-T) is the area under the plasma concentration-time curve from time zero to the last measurable time point calculated by the linear trapezoidal rule.

[1] = female dogs 1004, 1006 individual, 250 mcg intravesical
[2] = female dogs, 250 mcg intravesical

Which concentration at 2 h (both sexes, dog, plasma, other: intravesical instillation, 25 mcg, Group 1 dogs, 25 mL at 1 mcg/mL (25 mcg/dose), 2 hours post-dosing, male and female dog, read-out: plasma concentrations for RTX) does the source give for C=C(C)[C@]12C[C@@H](C)[C@@]34O[C@](Cc5ccccc5)(O[C@@H]1[C@@H]3C=C(COC(=O)Cc1ccc(O)c(OC)c1)C[C@]1(O)C(=O)C(C)=C[C@@H]41)O2 [RTX, resiniferatoxin] here?
The concentration at 2 h was < 0.05 ng/mL.

What about the “AUC(0-T) Ratio (Male/Female)” value (dogs, 250 mcg intravesical) of the same molecule?
The value was 1.23.

What about the “Cmax Ratio (Male/Female)” value (dogs, 250 mcg intravesical) of the same molecule?
The value was 1.28.

What about the “RTX exposure in males compared with females” value (dogs, 250 mcg intravesical) of the same molecule?
The value was “similar”.

And the “Plasma concentration of RTX” value (female dog 1002, 25 mcg intravesical, 2 h)?
The value was “BQL (*BQL—Below quantifiable limit (<50.0 pg/mL); adequate signal-to-noise enabled reporting value as estimate)”.

What about the “Plasma concentration of RTX” value (female dog 1002, 25 mcg intravesical, 4 h) of the same molecule?
Its value is “BQL (*BQL—Below quantifiable limit (<50.0 pg/mL); adequate signal-to-noise enabled reporting value as estimate)”.

And the “Plasma concentration of RTX” value (female dog 1002, 25 mcg intravesical, 6 h)?
The value was “BQL (*BQL—Below quantifiable limit (<50.0 pg/mL); adequate signal-to-noise enabled reporting value as estimate)”.

What about the “Plasma concentration of RTX” value (female dog 1002, 25 mcg intravesical, 12 h) of the same molecule?
The value was “BQL (*BQL—Below quantifiable limit (<50.0 pg/mL); adequate signal-to-noise enabled reporting value as estimate)”.

What about the “Plasma concentration of RTX” value (female dog 1002, 25 mcg intravesical, 24 h) of the same molecule?
The value was “BQL (*BQL—Below quantifiable limit (<50.0 pg/mL); adequate signal-to-noise enabled reporting value as estimate)”.

What about the “Plasma concentration of RTX” value (female dog 1002, 25 mcg intravesical, 36 h) of the same molecule?
The value was “BQL (*BQL—Below quantifiable limit (<50.0 pg/mL); adequate signal-to-noise enabled reporting value as estimate)”.

And the “Plasma concentration of RTX” value (female dog 1002, 25 mcg intravesical, 48 h)?
Its value is “BQL (*BQL—Below quantifiable limit (<50.0 pg/mL); adequate signal-to-noise enabled reporting value as estimate)”.

What about the “Plasma concentration of RTX” value (female dog 1002, 25 mcg intravesical, 60 h) of the same molecule?
The value was “BQL (*BQL—Below quantifiable limit (<50.0 pg/mL); adequate signal-to-noise enabled reporting value as estimate)”.

What about the “Plasma concentration of RTX” value (female dog 1002, 25 mcg intravesical, 72 h) of the same molecule?
The value was “BQL (*BQL—Below quantifiable limit (<50.0 pg/mL); adequate signal-to-noise enabled reporting value as estimate)”.

And the “Plasma concentration of RTX” value (female dog 1002, 25 mcg intravesical, Predose)?
The value was “BQL (*BQL—Below quantifiable limit (<50.0 pg/mL); adequate signal-to-noise enabled reporting value as estimate)”.

And the “AUC(0-T)” value [1]?
The value was 0.441 ng·h/mL and 0.146 ng·h/mL.

And the “AUC(0-T)/Dose” value [1]?
The value was 1.76 pg·h/mL/µg and 0.584 pg·h/mL/µg.

And the Cmax [1]?
The Cmax was 0.388 ng/mL and 0.16 ng/mL.

What about the Cmax/Dose [1] of the same molecule?
The Cmax/Dose was 1.55 pg/mL/µg and 0.640 pg/mL/µg.

And the “Plasma concentration of RTX” value (female dogs 1004, 1006 individual, 250 mcg intravesical, 0.5 h)?
The value was 0.388 ng/mL and 0 ng/mL.

And the “Plasma concentration of RTX” value (female dogs 1004, 1006 individual, 250 mcg intravesical, 1 h)?
The value was 0.16 ng/mL.

And the “Plasma concentration of RTX” value (female dogs 1004, 1006 individual, 250 mcg intravesical, 2 h)?
Its value is 0.0511 ng/mL.

And the “Plasma concentration of RTX” value (female dogs 1004, 1006 individual, 250 mcg intravesical, 4 h)?
The value was 0 ng/mL.

What about the “Plasma concentration of RTX” value (female dogs 1004, 1006 individual, 250 mcg intravesical, 6 h) of the same molecule?
Its value is 0 ng/mL.

What about the “Plasma concentration of RTX” value (female dogs 1004, 1006 individual, 250 mcg intravesical, 12 h) of the same molecule?
Its value is 0 ng/mL.

What about the “Plasma concentration of RTX” value (female dogs 1004, 1006 individual, 250 mcg intravesical, 24 h) of the same molecule?
Its value is 0 ng/mL.

What about the “Plasma concentration of RTX” value (female dogs 1004, 1006 individual, 250 mcg intravesical, 36 h) of the same molecule?
The value was 0 ng/mL.

And the “Plasma concentration of RTX” value (female dogs 1004, 1006 individual, 250 mcg intravesical, 48 h)?
The value was 0 ng/mL.

What about the “Plasma concentration of RTX” value (female dogs 1004, 1006 individual, 250 mcg intravesical, 60 h) of the same molecule?
Its value is 0 ng/mL.

What about the “Plasma concentration of RTX” value (female dogs 1004, 1006 individual, 250 mcg intravesical, 72 h) of the same molecule?
The value was 0 ng/mL.

What about the “Plasma concentration of RTX” value (female dogs 1004, 1006 individual, 250 mcg intravesical, Predose) of the same molecule?
Its value is 0 ng/mL.

And the “AUC(0-T)/Dose, Mean” value [2]?
Its value is 1.18 pg·h/mL/µg.

And the “Cmax/Dose, Mean” value [2]?
Its value is 1.10 pg/mL/µg.

And the “Plasma concentration of RTX, Mean” value (female dogs, 250 mcg intravesical, Predose)?
Its value is 0 ng/mL.

And the Tmax (female, dog, plasma, 250 ug, female dogs 1004, 1006 individual, 250 mcg intravesical, read-out: Tmax)?
The Tmax was 30 min.

And the Tmax (female, dog, plasma, 250 ug, female dogs, 250 mcg intravesical, read-out: Tmax, Mean)?
Its Tmax is 45 ± 21.2 min.

And the concentration at 60 h (female, dog, plasma, other: intravesical instillation into the urinary bladder, 250 mcg, female dogs 1004, 1006 individual, 250 mcg intravesical, 60 h, read-out: Plasma concentration of RTX)?
Its concentration at 60 h is 0 ng/mL.

What about the concentration at 72 h (female, dog, plasma, other: intravesical instillation into the urinary bladder, 250 mcg, female dogs 1004, 1006 individual, 250 mcg intravesical, 72 h, read-out: Plasma concentration of RTX) of the same molecule?
The concentration at 72 h was 0 ng/mL.

And the concentration at 0.5 h (female, dog, plasma, other: intravesical instillation into the urinary bladder, 250 mcg, female dogs, 250 mcg intravesical, 0.5 h, read-out: Plasma concentration of RTX, Mean)?
Its concentration at 0.5 h is 0.194 ng/mL.

What about the concentration at 60 h (female, dog, plasma, other: intravesical instillation into the urinary bladder, 250 mcg, female dogs, 250 mcg intravesical, 60 h, read-out: Plasma concentration of RTX, Mean) of the same molecule?
The concentration at 60 h was 0 ng/mL.

And the concentration at 72 h (female, dog, plasma, other: intravesical instillation into the urinary bladder, 250 mcg, female dogs, 250 mcg intravesical, 72 h, read-out: Plasma concentration of RTX, Mean)?
Its concentration at 72 h is 0 ng/mL.

What about the AUC(0-t) (female, dog, plasma, other: intravesical instillation, 250 ug, female dogs, 250 mcg intravesical, read-out: AUC(0-T), Mean) of the same molecule?
The AUC(0-t) was 0.294 ± 0.209 ng·h/mL.

And the Cmax (female, dog, plasma, other: intravesical instillation, 250 ug, female dogs, 250 mcg intravesical, read-out: Cmax, Mean)?
Its Cmax is 0.274 ± 0.161 ng/mL.

And the Tmax (female, dog, plasma, other: intravesical instillation, 250 ug, female dogs, 250 mcg intravesical, read-out: Tmax, Mean)?
Its Tmax is 45 min.

What about the concentration at 0.5 h (female, dog, plasma, other: intravesical instillation, 25 mcg, female dog 1002, 25 mcg intravesical, 0.5 h, read-out: Plasma concentration of RTX) of the same molecule?
Its concentration at 0.5 h is 0.0392 ng/mL.

What about the concentration at 1 h (female, dog, plasma, other: intravesical instillation, 25 mcg, female dog 1002, 25 mcg intravesical, 1 h, read-out: Plasma concentration of RTX) of the same molecule?
Its concentration at 1 h is 0.0203 ng/mL.

And the concentration at 1 h (female, dog, plasma, other: intravesical instillation, 250 mcg, female dogs 1004, 1006 individual, 250 mcg intravesical, 1 h, read-out: Plasma concentration of RTX)?
Its concentration at 1 h is 0.289 ng/mL.

And the concentration at 2 h (female, dog, plasma, other: intravesical instillation, 250 mcg, female dogs 1004, 1006 individual, 250 mcg intravesical, 2 h, read-out: Plasma concentration of RTX)?
The concentration at 2 h was 0.0602 ng/mL.

And the concentration at 4 h (female, dog, plasma, other: intravesical instillation, 250 mcg, female dogs 1004, 1006 individual, 250 mcg intravesical, 4 h, read-out: Plasma concentration of RTX)?
Its concentration at 4 h is 0 ng/mL.

What about the concentration at 6 h (female, dog, plasma, other: intravesical instillation, 250 mcg, female dogs 1004, 1006 individual, 250 mcg intravesical, 6 h, read-out: Plasma concentration of RTX) of the same molecule?
The concentration at 6 h was 0 ng/mL.

What about the concentration at 12 h (female, dog, plasma, other: intravesical instillation, 250 mcg, female dogs 1004, 1006 individual, 250 mcg intravesical, 12 h, read-out: Plasma concentration of RTX) of the same molecule?
Its concentration at 12 h is 0 ng/mL.

What about the concentration at 24 h (female, dog, plasma, other: intravesical instillation, 250 mcg, female dogs 1004, 1006 individual, 250 mcg intravesical, 24 h, read-out: Plasma concentration of RTX) of the same molecule?
The concentration at 24 h was 0 ng/mL.

And the concentration at 36 h (female, dog, plasma, other: intravesical instillation, 250 mcg, female dogs 1004, 1006 individual, 250 mcg intravesical, 36 h, read-out: Plasma concentration of RTX)?
The concentration at 36 h was 0 ng/mL.

What about the concentration at 48 h (female, dog, plasma, other: intravesical instillation, 250 mcg, female dogs 1004, 1006 individual, 250 mcg intravesical, 48 h, read-out: Plasma concentration of RTX) of the same molecule?
The concentration at 48 h was 0 ng/mL.

And the concentration at 1 h (female, dog, plasma, other: intravesical instillation, 250 mcg, female dogs, 250 mcg intravesical, 1 h, read-out: Plasma concentration of RTX, Mean)?
Its concentration at 1 h is 0.225 ng/mL.

What about the concentration at 2 h (female, dog, plasma, other: intravesical instillation, 250 mcg, female dogs, 250 mcg intravesical, 2 h, read-out: Plasma concentration of RTX, Mean) of the same molecule?
Its concentration at 2 h is 0.0557 ng/mL.

What about the concentration at 4 h (female, dog, plasma, other: intravesical instillation, 250 mcg, female dogs, 250 mcg intravesical, 4 h, read-out: Plasma concentration of RTX, Mean) of the same molecule?
The concentration at 4 h was 0 ng/mL.

What about the concentration at 6 h (female, dog, plasma, other: intravesical instillation, 250 mcg, female dogs, 250 mcg intravesical, 6 h, read-out: Plasma concentration of RTX, Mean) of the same molecule?
Its concentration at 6 h is 0 ng/mL.

What about the concentration at 12 h (female, dog, plasma, other: intravesical instillation, 250 mcg, female dogs, 250 mcg intravesical, 12 h, read-out: Plasma concentration of RTX, Mean) of the same molecule?
Its concentration at 12 h is 0 ng/mL.

And the concentration at 24 h (female, dog, plasma, other: intravesical instillation, 250 mcg, female dogs, 250 mcg intravesical, 24 h, read-out: Plasma concentration of RTX, Mean)?
Its concentration at 24 h is 0 ng/mL.

What about the concentration at 36 h (female, dog, plasma, other: intravesical instillation, 250 mcg, female dogs, 250 mcg intravesical, 36 h, read-out: Plasma concentration of RTX, Mean) of the same molecule?
The concentration at 36 h was 0 ng/mL.

And the concentration at 48 h (female, dog, plasma, other: intravesical instillation, 250 mcg, female dogs, 250 mcg intravesical, 48 h, read-out: Plasma concentration of RTX, Mean)?
The concentration at 48 h was 0 ng/mL.

Source: patent US20230270713A1, “Administration of Resiniferatoxin For Treatment of Bladder Pain or Bladder Cancer” (Sorrento Therapeutics, Inc., priority 2020, published 2023)
